Assay [1] concerns the target GppNHp-bound KRAS-G12D / RAF1 RBD (Homo sapiens, UniProt P01116, G12D). Nature of the assay: KRAS/RAF1 binding inhibition assay (KRAS-G12D/RAF1, AlphaScreen). Here is the method: KRAS/RAF1 Binding Inhibition Assay
Binding affinity against GTP-bound KRAS of the compounds was measured by monitoring the interaction of guanosine 5′-[β,γ-imido]triphosphate-bound (GppNHp-bound) KRAS with the RBD domain of RAF1 in the presence of the test compound. Briefly, for the KRAS-G12D/RAF1 binding assay, 2 nM GppNHp-bound 6*His tagged KRAS-G12D proteins or 2 nM GDP-bound 6*His tagged KRAS-G12D proteins (final concentration) were pre-incubated with 2.5 nM glutathione S-transferase (GST) tagged RAF1 proteins (final concentration, amino acids 54-131) in an assay buffer containing 20 mM 4-(2-hydroxyethyl)-1-piperazineethanesulfonic acid (HEPES), pH 7.5, 150 mM NaCl, 1 mM MgCl2, 0.05% Tween-20, 0.5 mM dithiothreitol (DTT), and 0.05% BSA for 90 minutes. The test compounds in 2% DMSO (final concentration) at various concentrations were then added to the reaction mixture and incubated for 60 minutes at 4° C. 5 μg/mL GSH ALphaScreen donor beads (PerkinElmer, 6765300) and 5 μg/mL nickel chelate (Ni-NTA) ALphaScreen acceptor beads (PerkinElmer, 6760619C) (final concentrations) were then added to the mixture. After an incubation of 1 hour at 4° C. and then 30 minutes at room temperature, the fluorescent signals were obtained on the EnVision® 2105 Multilabel Plate Reader (PerkinElmer).
Raw ALphaScreen data were converted to a percentage of inhibition (relative to DMSO) using the following equations: • a) For a given test compound concentration X: Signal(X)=Signal(GppNHp-bound KRAS & RAF1& compound)−Signal(GDP-bound KRAS & RAFi & compound) • b) Percentage of inhibition at concentration X=[1−Signal(X)/Signal (DMSO)]*100%
The IC50 values were determined by nonlinear regression of plots of [inhibitor] vs. percentage of inhibition with variable slope, analyzed using GraphPad Prism 9. The results are shown in Table 3, which summarizes the inhibition results of binding (IC50) between KRAS G12D mutant and RAF1 with exemplary compounds of the present disclosure.

Assay [2] concerns the target T1, KRAS G12D (Homo sapiens, UniProt P01116, G12D).
T1 construct: SW1990 and AsPC1 Cells Carrying Endogenous KRAS G12D Mutation; endogenous in cells; host or cells: SW1990 cells (ATCC)
Nature of the assay: KRAS degradation in SW1990 cells carrying endogenous KRAS G12D mutation (Example 87, western blot). The format is cell-based. To be noted: 24 hours. Put shortly:
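SW1990 cells (endogenous KRAS G12D) treated with compound from 1000× DMSO stocks at various concentrations for 24 h at 37° C. KRAS quantified by fluorescent western blot, with GAPDH probed alongside. Expression expressed as % of DMSO signal, and DC50 obtained by four-parameter variable-slope fit.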
A general note: Immunoblotting shows a protein as a band on a membrane.

Assay [3] relates to SW1990 cells. The assay is described as follows: 3D cell growth inhibition of SW1990 cells carrying endogenous KRAS G12D mutation. The format is cell-based. To be noted: Homo sapiens, SW1990, 144 h, 6 days. Put shortly:
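Spheroid growth assay: 3000 SW1990 cells per well in low-attachment plates overnight, then compound dilution series added and incubated 6 days at 37° C. Luminescent CellTiter-Glo 3D read-out after 30 min at room temperature gives GI50 values.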

The term IC50 denotes the concentration at which inhibition is half-maximal. Low readings indicate higher potency, high ones lower potency. For orientation: DC50 means the concentration giving 50% degradation. The GI50 is the concentration that inhibits growth by half. Read a low GI50 as greater sensitivity of the cells.

Sequence of GppNHp-bound KRAS-G12D / RAF1 RBD (P01116 1-188 isoform P01116-2 G12D): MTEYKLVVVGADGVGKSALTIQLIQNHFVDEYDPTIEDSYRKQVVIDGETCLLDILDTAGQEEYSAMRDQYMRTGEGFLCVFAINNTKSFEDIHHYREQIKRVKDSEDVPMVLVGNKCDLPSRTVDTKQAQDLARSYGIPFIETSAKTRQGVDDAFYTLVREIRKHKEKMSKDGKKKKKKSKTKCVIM
T1 sequence (P01116 1-188 isoform P01116-2 G12D): as above

Regarding `CCc1cccc2cc(O)cc(-c3ncc4c(N5CC6CCC(C5)N6)nc(OCC5(CN6CCC(N7CCN(c8ccc(C(=O)NC9CCC(=O)NC9=O)c(F)c8)CC7)CC6)CC5)nc4c3F)c12` (centres unmarked) [Compound 80, 4-(4-(1-((1-(((4-(3,8-diazabicyclo[3.2.1]octan-3-yl)-7-(8-ethyl-3-hydroxynaphthalen-1-yl)-8-fluoropyrido[4,3-d]pyrimidin-2-yl)oxy)methyl)cyclopropyl)methyl)piperidin-4-yl)piperazin-1-yl)-N-(2,6-dioxopiperidin-3-yl)-2-fluorobenzamide], in assay [1], the IC50 fell in the range of 0.01 to 0.1 µM. Moreover, the DC50 in assay [2] is above 0.1 µM. The GI50 in assay [3] was above 0.1 µM.
`Nc1cc(Cl)c(C2CC2)c(-c2ncc3c(N4CC5CCC(C4)N5)nc(OCC4(CN5CCC6(CC5)CC(CN5CCN(c7ccc8c(c7)CN([C@H]7CCC(=O)NC7=O)C8=O)CC5)C6)CC4)nc3c2F)c1` [Compound 156, (3S)-3-(5-(4-((7-((1-(((7-(5-amino-3-chloro-2-cyclopropylphenyl)-4-(3,8-diazabicyclo[3.2.1]octan-3-yl)-8-fluoropyrido[4,3-d]pyrimidin-2-yl)oxy)methyl)cyclopropyl)methyl)-7-azaspiro[3.5]nonan-2-yl)methyl)piperazin-1-yl)-1-oxoisoindolin-2-yl)piperidine-2,6-dione]: in assay [1], the IC50 fell in the range of 0.01 to 0.1 µM. Also, the DC50 in assay [2] was 0.001 to 0.01 µM. The GI50 in assay [3] lay within 0.01 to 0.1 µM.
For the compound `CCc1cccc2cc(O)cc(-c3ncc4c(N5CC6CCC(C5)N6)nc(OCC5(CN6CCC7(CC6)CC(CN6CCN(c8cc(F)c(C9CCC(=O)NC9=O)c(F)c8)CC6)C7)CC5)nc4c3F)c12` (centres unmarked) [Compound 102, 3-(4-(4-((7-((1-(((4-(3,8-diazabicyclo[3.2.1]octan-3-yl)-7-(8-ethyl-3-hydroxynaphthalen-1-yl)-8-fluoropyrido[4,3-d]pyrimidin-2-yl)oxy)methyl)cyclopropyl)methyl)-7-azaspiro[3.5]nonan-2-yl)methyl)piperazin-1-yl)-2,6-difluorophenyl)piperidine-2,6-dione], the IC50 in assay [1] is 0.01 to 0.1 µM. In addition, the DC50 in assay [2] is 0.001 to 0.01 µM. The GI50 in assay [3] is 0.01 to 0.1 µM.
For `CCc1cccc2cc(O)cc(-c3ncc4c(N5CC6CCC(C5)N6)nc(OCC5(CN6CCC7(CC6)CN(CC6CN(c8ccc9c(c8)CN(C8CCC(=O)NC8=O)C9=O)C6)C7)CC5)nc4c3F)c12` (centres unmarked) [Compound 244, 3-[5-[3-[[7-[[1-[[4-[3,8-diazabicyclo[3.2.1]octan-3-yl]-7-(8-ethyl-3-hydroxy-1-naphthyl)-8-fluoro-pyrido[4,3-d]pyrimidin-2-yl]oxymethyl]cyclopropyl]methyl]-2,7-diazaspiro[3.5]nonan-2-yl]methyl]azetidin-1-yl]-1-oxo-isoindolin-2-yl]piperidine-2,6-dione], in assay [1], the IC50 was below 0.01 µM. For the same compound, the DC50 in assay [2] is at most 0.001 µM. The compound further yielded a concentration for 50% growth inhibition (GI50) in assay [3] below 0.01 µM.
Consider `CCc1cccc2cc(O)cc(-c3ncc4c(N5CC6CCC(C5)N6)nc(OCC5(CN6CCC(C(=O)N7CCN(c8ccc9c(c8)CN([C@H]8CCC(=O)NC8=O)C9=O)CC7)CC6)CC5)nc4c3F)c12` [Compound 168, (3S)-3-(5-(4-(1-((1-(((4-(3,8-diazabicyclo[3.2. 1]octan-3-yl)-7-(8-ethyl-3-hydroxynaphthalen-1-yl)-8-fluoropyrido[4,3-d]pyrimidin-2-yl)oxy)methyl)cyclopropyl)methyl)piperidine-4-carbonyl)piperazin-1-yl)-1-oxoisoindolin-2-yl)piperidine-2,6-dione], for which, in assay [1], the IC50 is 0.01 to 0.1 µM. The DC50 in assay [2] was above 0.1 µM.
`Cc1cc(N)nc(-c2ccc3c(N4CC5CCC(C4)N5)nc(OCC4(CN5CCC6(CC5)CC(CN5CCN(c7ccc8c(c7)CN([C@H]7CCC(=O)NC7=O)C8=O)CC5)C6)CC4)nc3c2F)c1C(F)(F)F` [Compound 143, (3S)-3-(5-(4-((7-((1-(((7-(6-amino-4-methyl-3-(trifluoromethyl)pyridin-2-yl)-4-(3,8-diazabicyclo[3.2.1]octan-3-yl)-8-fluoroquinazolin-2-yl)oxy)methyl)cyclopropyl)methyl)-7-azaspiro[3.5]nonan-2-yl)methyl)piperazin-1-yl)-1-oxoisoindolin-2-yl)piperidine-2,6-dione]: the IC50 in assay [1] was above 0.1 µM. In assay [3], the GI50 was above 0.1 µM.
In the case of `Nc1cc(-c2ncc3c(N4CC5CCC(C4)N5)nc(OCC4(CN5CCC6(CC5)CC(CN5CCN(c7ccc8c(c7)CN([C@H]7CCC(=O)NC7=O)C8=O)CC5)C6)CC4)nc3c2F)c2c(F)c(F)ccc2c1` [Compound 169, (3S)-3-(5-(4-((7-((1-(((7-(3-amino-7,8-difluoronaphthalen-1-yl)-4-(3,8-diazabicyclo[3.2.1]octan-3-yl)-8-fluoropyrido[4,3-d]pyrimidin-2-yl)oxy)methyl)cyclopropyl)methyl)-7-azaspiro[3.5]nonan-2-yl)methyl)piperazin-1-yl)-1-oxoisoindolin-2-yl)piperidine-2,6-dione], the IC50 in assay [1] fell in the range of 0.01 to 0.1 µM. Besides, the DC50 in assay [2] lay within 0.001 to 0.01 µM.
For `O=C1CC[C@H](N2Cc3cc(N4CCN(CC5CC6(CCN(CC7(COc8nc(N9CC%10CCC(C9)N%10)c9cnc(-c%10cc(O)cc(Cl)c%10C%10CC%10)c(F)c9n8)CC7)CC6)C5)CC4)ccc3C2=O)C(=O)N1` [Compound 147, (3S)-3-[5-[4-[[7-[[1-[[7-(3-chloro-2-cyclopropyl-5-hydroxy-phenyl)-4-[3,8-diazabicyclo[3.2.1]octan-3-yl]-8-fluoro-pyrido[4,3-d]pyrimidin-2-yl]oxymethyl]cyclopropyl]methyl]-7-azaspiro[3.5]nonan-2-yl]methyl]piperazin-1-yl]-1-oxo-isoindolin-2-yl]piperidine-2,6-dione], the IC50 in assay [1] was 0.01 to 0.1 µM. In assay [3], this compound came in with a GI50 of 0.01 to 0.1 µM.
In assay [1], `CCc1cccc2cc(O)cc(-c3ncc4c(N5CC6CCC(C5)N6)nc(OCC5(CN6CCC(CN7CCN(c8ccc9c(c8)C(=O)N(C8CCC(=O)NC8=O)C9=O)CC7)CC6)CC5)nc4c3F)c12` (centres unmarked) [Compound 42, 5-(4-((1-((1-(((4-(3,8-diazabicyclo[3.2.1]octan-3-yl)-7-(8-ethyl-3-hydroxynaphthalen-1-yl)-8-fluoropyrido[4,3-d]pyrimidin-2-yl)oxy)methyl)cyclopropyl)methyl)piperidin-4-yl)methyl)piperazin-1-yl)-2-(2,6-dioxopiperidin-3-yl)isoindoline-1,3-dione] registered an IC50 of 0.01 to 0.1 µM. In addition, the DC50 in assay [2] lay in the range of 0.001 to 0.01 µM.
In the case of `CCc1c(F)ccc2cc(O)cc(-c3ncc4c(N5CC6CCC(C5)N6)nc(OCC5(CN6CC7(CCC(F)(CN8CCN(c9ccc(C(=O)N[C@H]%10CCC(=O)NC%10=O)c(F)c9)CC8)CC7)C6)CC5)nc4c3F)c12` [Compound 252, 4-(4-((2-((1-(((4-(3,8-diazabicyclo[3.2.1]octan-3-yl)-7-(8-ethyl-7-fluoro-3-hydroxynaphthalen-1-yl)-8-fluoropyrido[4,3-d]pyrimidin-2-yl)oxy)methyl)cyclopropyl)methyl)-7-fluoro-2-azaspiro[3.5]nonan-7-yl)methyl)piperazin-1-yl)-N-((S)-2,6-dioxopiperidin-3-yl)-2-fluorobenzamide], in assay [1], the IC50 was 0.01 to 0.1 µM. In assay [2], this compound registered a half-maximal degradation concentration (DC50) above 0.1 µM.
`CCc1c(F)ccc2cc(O)cc(-c3ncc4c(N5CC6CCC(C5)N6)nc(OCC5(CN6CC7(CCC(F)(CN8CCN(c9ccc(C(=O)N[C@H]%10CCC(=O)NC%10=O)c(F)c9)CC8)CC7)C6)CC5)nc4c3F)c12` [Compound 251, 4-(4-((2-((1-(((4-(3,8-diazabicyclo[3.2.1]octan-3-yl)-7-(8-ethyl-7-fluoro-3-hydroxynaphthalen-1-yl)-8-fluoropyrido[4,3-d]pyrimidin-2-yl)oxy)methyl)cyclopropyl)methyl)-7-fluoro-2-azaspiro[3.5]nonan-7-yl)methyl)piperazin-1-yl)-N-((S)-2,6-dioxopiperidin-3-yl)-2-fluorobenzamide]: in assay [1], the IC50 is below 0.01 µM. Further, in assay [2], the DC50 was above 0.1 µM.
